Assay results taken from patent publication US12415786B2, “Substituted 2-heteroarylaminobenzenes and the salts thereof and their use as herbicidal agents” (Bayer Aktiengesellschaft, priority 2019, dated 2025).

Tests used:
Assay type in all cases: in vivo
Setaria viridis = test: Herbicidal pre-emergence action (greenhouse pots), SETVI; conditions: 1280 g/ha, visual scoring after about 3 weeks vs untreated controls
From the text: (§1) In the examples and tables below, the following abbreviations are used: • Undesired Plants/Weeds: • ABUTH: Abutilon theophrasti • AGSTE: Agrostis tenuis • AMARE Amaranthus retroflexus • ECHCG: Echinochloa crus-galli • LOLRI: Lolium rigidum • MATIN: Matricaria inodora • POAAN: Poa annua • SETVI: Setaria viridis • STEME: Stellaria media A. Herbicidal Early Post-Emergence Action Seeds of mono- and dicotyledonous weed plants were placed in plastic pots in sandy loam soil (doubly sown with one species each of mono- or dicotyledonous weed plants per pot) and covered with soil. The compounds of the invention, formulated in the form of wettable powders (WP) or as emulsion concentrates (EC), were then applied onto the surface of the covering soil as aqueous suspension or emulsion with addition of 0.5% additive at a water application rate of 600 liters per hectare (converted). After the treatment, the pots were placed in a greenhouse and kept under good growth conditions for the test plants. After about 3 weeks, the effect of the preparations was scored visually in comparison with untreated controls as percentages. For example, 100% activity=the plants have died, 0% activity=like untreated control plants. Tables C1-C8 below show the effects of selected compounds of the general formula (I) according to Table 1 above on various harmful plants and an application rate corresponding to 1280 g/ha, which were obtained by the experimental procedure mentioned above.

Stellaria media [1] = test: Herbicidal post-emergence action (greenhouse pots), STEME; conditions: 1280 g/ha, visual rating about 3 weeks after treatment vs untreated controls
From the text: (§2) In the examples and tables below, the following abbreviations are used: • Undesired Plants/Weeds: • ABUTH: Abutilon theophrasti • AGSTE: Agrostis tenuis • AMARE Amaranthus retroflexus • ECHCG: Echinochloa crus-galli • LOLRI: Lolium rigidum • MATIN: Matricaria inodora • POAAN: Poa annua • SETVI: Setaria viridis • STEME: Stellaria media A. Herbicidal Early Post-Emergence Action Seeds of mono- and dicotyledonous weed plants were placed in plastic pots in sandy loam soil (doubly sown with in each case one species of mono- or dicotyledonous weed plants per pot), covered with soil and cultivated in a greenhouse under controlled growth conditions. 2 to 3 weeks after sowing, the test plants were treated at the one-leaf stage. The compounds of the invention, formulated in the form of wettable powders (WP) or as emulsion concentrates (EC), were applied onto the green parts of the plants as aqueous suspension or emulsion with addition of 0.5% additive at a water application rate of 600 liters per hectare (converted). After the test plants had been kept in the greenhouse under optimum growth conditions for about 3 weeks, the activity of the preparations was rated visually in comparison to untreated controls. For example, 100% activity=the plants have died, 0% activity=like untreated control plants. Tables B1-B8 below show the effects of selected compounds of the general formula (I) according to Table 1 above on various harmful plants and an application rate corresponding to 1280 g/ha, which were obtained by the experimental procedure mentioned above.

Agrostis tenuis = test: Herbicidal early post-emergence action (96-well microtiter plates), AGSTE; conditions: 1900 g/ha, scored 9 to 12 days after treatment, 100% = plants have died, 0% = like untreated control plants
From the text: (§3) In the examples and tables below, the following abbreviations are used: • Undesired Plants/Weeds: • ABUTH: Abutilon theophrasti • AGSTE: Agrostis tenuis • AMARE Amaranthus retroflexus • ECHCG: Echinochloa crus-galli • LOLRI: Lolium rigidum • MATIN: Matricaria inodora • POAAN: Poa annua • SETVI: Setaria viridis • STEME: Stellaria media A. Herbicidal Early Post-Emergence Action Seeds of monocotyledonous and dicotyledonous weed plants were placed in 96-well microtiter plates in quartz sand and grown in a climatized chamber under controlled growth conditions. 5 to 7 days after sowing, the test plants were treated at the cotyledon stage. The compounds according to the invention, formulated in the form of emulsion concentrates (EC), were applied with a water application rate of the equivalent of 2200 liters per hectare. After the test plants had been left to stand in the climatized chamber for 9 to 12 days under optimum growth conditions, the effect of the preparations was scored visually in comparison to untreated controls. Here, for example, 100% activity=the plants have died, 0% activity=like untreated control plants. Tables A1 to A2 below show the effects of selected compounds of the general formula (I) according to Table 1 above on various harmful plants and an application rate corresponding to 1900 g/ha, which were obtained by the experimental procedure mentioned above.

Amaranthus retroflexus [2] = test: Herbicidal pre-emergence action (greenhouse pots), AMARE; conditions: 1280 g/ha, visual scoring after about 3 weeks vs untreated controls
From the text: as §1

Poa annua [3] = test: Herbicidal early post-emergence action (96-well microtiter plates), POAAN; conditions: 1900 g/ha, scored 9 to 12 days after treatment, 100% = plants have died, 0% = like untreated control plants
From the text: as §3

Amaranthus retroflexus [4] = test: Herbicidal post-emergence action (greenhouse pots), AMARE; conditions: 1280 g/ha, visual rating about 3 weeks after treatment vs untreated controls
From the text: as §2

Poa annua [5] = test: Herbicidal pre-emergence action (greenhouse pots), POAAN; conditions: 1280 g/ha, visual scoring after about 3 weeks vs untreated controls
From the text: as §1

Stellaria media [6] = test: Herbicidal pre-emergence action (greenhouse pots), STEME; conditions: 1280 g/ha, visual scoring after about 3 weeks vs untreated controls
From the text: as §1

Matricaria inodora = test: Herbicidal pre-emergence action (greenhouse pots), MATIN; conditions: 1280 g/ha, visual scoring after about 3 weeks vs untreated controls
From the text: as §1

Abutilon theophrasti = test: Herbicidal post-emergence action (greenhouse pots), ABUTH; conditions: 1280 g/ha, visual rating about 3 weeks after treatment vs untreated controls
From the text: as §2

Row | Structure (SMILES) | herbicidal activity SETVI (Setaria viridis) [%] | herbicidal activity STEME (Stellaria media [1]) [%] | AGSTE (herbicidal activity, scored visually in comparison to untreated controls) (Agrostis tenuis) [%] | herbicidal activity AMARE (Amaranthus retroflexus [2]) [%] | POAAN (herbicidal activity, scored visually in comparison to untreated controls) (Poa annua [3]) [%] | herbicidal activity AMARE (Amaranthus retroflexus [4]) [%] | herbicidal activity POAAN (Poa annua [5]) [%] | herbicidal activity STEME (Stellaria media [6]) [%] | herbicidal activity MATIN (Matricaria inodora) [%] | herbicidal activity ABUTH (Abutilon theophrasti) [%]
1 | N#Cc1cccc(Nc2ccccn2)c1Oc1ccc(F)cc1 [Example 1-88] | 90 | 100 | 100 | 100 | 80 |  |  |  |  | 
2 | N#Cc1cccc(Nc2ccc(F)cn2)c1Oc1ccc(F)cc1 [Example 1-106] |  | 90 | 100 | 100 | 100 | 100 | 100 |  |  | 
3 | N#Cc1cccc(Nc2ncccn2)c1Oc1ccc(Cl)cc1 [Example 1-250] | 90 | 90 | 80 | 100 | 80 | 100 | 100 | 100 |  | 
4 | N#Cc1cccc(Nc2ncccn2)c1Oc1ccc(F)cc1F [Example 1-251] | 90 |  | 80 | 100 | 80 | 100 |  | 100 | 100 | 
5 | N#Cc1cccc(Nc2ncccn2)c1Oc1cc(F)cc(F)c1 [Example 1-254] | 100 |  |  | 100 |  | 100 | 90 |  |  | 
6 | N#Cc1cccc(Nc2ncccn2)c1Oc1ccc(F)cc1Cl [Example 1-255] |  | 100 | 80 | 100 | 80 | 100 |  | 100 |  | 
7 | N#Cc1cccc(Nc2ncccn2)c1Oc1ccc(Cl)cc1F [Example 1-256] | 90 |  | 80 | 100 | 80 | 100 | 100 | 100 | 90 | 
8 | N#Cc1cccc(Nc2ncc(F)cn2)c1Oc1ccccc1F [Example 1-265] | 90 |  | 80 | 100 |  | 100 | 100 | 100 |  | 
9 | N#Cc1cccc(Nc2ncc(F)cn2)c1Oc1cc(F)ccc1F [Example 1-271] | 90 |  | 80 | 100 | 80 | 100 | 90 |  |  | 
10 | N#Cc1cccc(Nc2ncc(F)cn2)c1Oc1ccc(F)cc1Cl [Example 1-274] |  | 90 | 80 | 90 | 100 | 100 | 90 | 90 |  | 
11 | N#Cc1cccc(Nc2ncc(Cl)cn2)c1Oc1cccc(Cl)c1 [Example 1-287] | 100 |  | 80 | 100 |  | 100 | 100 |  |  | 
12 | COc1cccc(Oc2c(C#N)cccc2Nc2ncc(Cl)cn2)c1 [Example 1-300] |  |  | 80 | 90 |  | 100 |  | 100 | 90 | 
13 | N#Cc1cnc(Nc2cccc(C#N)c2Oc2ccc(F)cc2)nc1 [Example 1-304] | 100 |  | 100 | 100 | 100 | 100 | 100 | 100 | 100 | 
14 | N#Cc1cnc(Nc2cccc(C#N)c2Oc2ccc(F)c(F)c2)nc1 [Example 1-305] | 90 | 100 | 100 | 100 | 100 | 100 | 100 | 100 | 100 | 
15 | N#Cc1ccc(Oc2ccccc2Nc2ncc(Cl)cn2)cc1 [Example 1-339] |  | 100 | 100 |  | 100 | 100 |  |  |  | 
16 | Clc1cnc(Nc2ccccc2Oc2cccnc2)nc1 [Example 3-49] |  |  | 80 |  |  | 100 |  |  |  | 90
